In patent publication US20230022724A1, “NOVEL IMIDAZOPYRAZINE DERIVATIVES” (Hoffmann-La Roche Inc., priority 2018, published 2023):
Where a name gives a salt, the structure may show the parent alone.

Each compound was assayed on Acinetobacter baumannii ATCC17978 (assay: Antimicrobial susceptibility testing: 90% growth inhibitory concentration (IC90) determination). Settings: 90% growth inhibitory concentration, Acinetobacter baumannii ATCC17978, Iso-Sensitest broth, OD 600 nm over 16 h; formate salt; read-out: ATCC17978 IC90.
Type: cell-based
Description: The in vitro antimicrobial activity of the compounds was determined according to the following procedure:
The assay used a 10-points Iso-Sensitest broth medium to measure quantitatively the in vitro activity of the compounds against Acinetobacter baumannii ATCC17978 and Acinetobacter baumannii ATCC17961.
Stock compounds in DMSO were serially twofold diluted (e.g. range from 50 to 0.097 μM final concentration) in 384 wells microtiter plates and inoculated with 49 μl the bacterial suspension in Iso-Sensitest medium to have a final cell concentration of ˜5×10^(5) CFU/ml in a final volume/well of 50 ul/well. Microtiter plates were incubated at 35±2° C.
Bacterial cell growth was determined with the measurement of optical density at λ=600 nm each 20 minutes over a time course of 16 h. Growth inhibition was calculated during the logarithmic growth of the bacterial cells with determination of the concentration inhibiting 50% (IC50) and 90% (IC90) of the growth.
Table 1 provides the 90% growth inhibitory concentrations (IC90) in micromoles per liter of the compounds of present invention obtained against the strain Acinetobacter baumannii ATCC17978 and Acinetobacter baumannii ATCC17961.

IC90 [nM] | SMILES
470 | COc1ccc(-c2cnc3c(Nc4ccc(C(=O)N5CCC(C(=O)N6CCNC(C(=O)O)C6)CC5)c(Cl)c4)nccn23)cc1F (stereo not shown) [Example 2, 4-(1-(2-chloro-4-((3-(3-fluoro-4-methoxyphenyl)imidazo [1,2-a]pyrazin-8-yl)amino)benzoyl)piperidine-4-carbonyl) piperazine-2-carboxylic acid, formate salt]

Same assay, conditions: 90% growth inhibitory concentration, Acinetobacter baumannii ATCC17978, Iso-Sensitest broth, OD 600 nm over 16 h; read-out: ATCC17978 IC90

IC90 [nM] | SMILES
120 | COc1ccc(-c2cnc3c(Nc4ccc(C(=O)N5CCN(CCN(C)C)CC5)c(Cl)c4)nccn23)cc1F [Example 3, (2-Chloro-4-((3-(3-fluoro-4-methoxyphenyl)imidazo[1,2-a]pyrazin-8-yl)amino)phenyl)(4-(2-(dimethylamino)ethyl)piperazin-1-yl)methanone]
300 | COc1ccc(-c2cnc3c(Nc4ccc(C(=O)N5CCC(C(=O)NCC6CNC6)CC5)c(Cl)c4)nccn23)cc1F [Example 19, N-(azetidin-3-ylmethyl)-1-(2-chloro-4-((3-(3-fluoro-4-methoxyphenyl)imidazo[1,2-a]pyrazin-8-yl)amino)benzoyl)piperidine-4-carboxamide]

Same assay, conditions: Acinetobacter baumannii, ATCC17978, 16 h, 90% growth inhibitory concentration, Acinetobacter baumannii ATCC17978, Iso-Sensitest broth, OD 600 nm over 16 h; read-out: ATCC17978 IC90

IC90 [nM] | SMILES
1900 | COc1ccc(-c2cnc3c(Nc4ccc(C(=O)N5CCNC(C(=O)O)C5)c(Cl)c4)nccn23)c(F)c1F (stereo not shown) [Example 1, 4-(2-chloro-4-((3-(2,3-difluoro-4-methoxyphenyl)imidazo[1,2-a]pyrazin-8-yl)amino)benzoyl)piperazine-2-carboxylic Acid]
120 | COc1ccc(-c2cnc3c(Nc4ccc(C(=O)N5CCC(CN)CC5)c(Cl)c4)nccn23)cc1F [Example 4, (4-(Aminomethyl)piperidin-1-yl)(2-chloro-4-((3-(3-fluoro-4-methoxyphenyl)imidazo[1,2-a]pyrazin-8-yl)amino)phenyl)methanone hydrochloride]
140 | NCC1CCN(C(=O)c2ccc(Nc3nccn4c(-c5ccc(OC(F)F)cc5)cnc34)cc2Br)CC1 [Example 5, (4-(aminomethyl)piperidin-1-yl)(2-bromo-4-((3-(4-(difluoromethoxy)phenyl)imidazo[1,2-a]pyrazin-8-yl)amino)phenyl)methanone hydrochloride]
100 | COc1ccc(-c2cnc3c(Nc4ccc(C(=O)N5CCC(CCN)CC5)c(Cl)c4)nccn23)c(F)c1F [Example 7, (4-(2-aminoethyl)piperidin-1-yl)(2-chloro-4-((3-(2,3-difluoro-4-methoxyphenyl)imidazo[1,2-a]pyrazin-8-yl)amino)phenyl)methanone]
170 | COc1ccc(-c2cnc3c(Nc4ccc(C(=O)N5CCC(CN)CC5)c(Cl)c4)nccn23)c(F)c1F [Example 8, (4-(aminomethyl)piperidin-1-yl)(2-chloro-4-((3-(2,3-difluoro-4-methoxyphenyl)imidazo[1,2-a]pyrazin-8-yl)amino)phenyl)methanone]
1600 | COc1ccc(-c2cnc3c(Nc4ccc(C(=O)N5CC5)c(Cl)c4)nccn23)c(F)c1F [Example 9, aziridin-1-yl(2-chloro-4-((3-(2,3-difluoro-4-methoxyphenyl)imidazo[1,2-a]pyrazin-8-yl)amino)phenyl)methanone]
140 | N#CCOc1ccc(-c2cnc3c(Nc4ccc(C(=O)N5CCC(c6cnc[nH]6)CC5)c(Cl)c4)nccn23)c(F)c1F [Example 11, 2-[4-[8-[3-chloro-4-[4-(1H-imidazol-5-yl)piperidine-1-carbonyl]anilino]imidazo[1,2-a]pyrazin-3-yl]-2,3-difluoro-phenoxy]acetontrile; 2,2,2-trifluoroacetic acid]
49 | N#CCOc1ccc(-c2cnc3c(Nc4ccc(C(=O)N5CCC(CN)CC5)c(Cl)c4)nccn23)c(F)c1F [Example 12, 2-(4-(8-((4-(4-(aminomethyl)piperidine-1-carbonyl)-3-chlorophenyl)amino)imidazo[1,2-a]pyrazin-3-yl)-2,3-difluorophenoxy)acetonitrile]
280 | N#CCOc1ccc(-c2cnc3c(Nc4ccc(C(=O)N5CCC(c6nnn[nH]6)CC5)c(Cl)c4)nccn23)c(F)c1F [Example 13, 2-[4-[8-[3-chloro-4-[4-(1H-tetrazol-5-yl)piperidine-1-carbonyl]anilino]imidazo[1,2-a]pyrazin-3-yl]-2,3-difluoro-phenoxy]acetonitrile;2,2,2-trifluoroacetic acid]
110 | N#CCOc1cc(Cl)c(-c2cnc3c(Nc4ccc(C(=O)N5CCC(C(=O)N6CCNC(CO)C6)CC5)c(Cl)c4)nccn23)cc1F (stereo not shown) [Example 15, 2-[5-chloro-4-[8-[3-chloro-4-[4-[3-(hydroxymethyl)piperazine-1-carbonyl]piperidine-1-carbonyl]anilino]imidazo[1,2-a]pyrazin-3-yl]-2-fluoro-phenoxy]acetonitrile; 2,2,2-trifluoroacetic]
180 | CNCC(=O)N1CCN(C(=O)c2ccc(Nc3nccn4c(-c5ccc(OC)c(F)c5)cnc34)cc2Cl)CC1 [Example 18, 1-(4-(2-chloro-4-((3-(3-fluoro-4-methoxyphenyl)imidazo[1,2-a]pyrazin-8-yl)amino)benzoyl)piperazin-1-yl)-2-(methylamino)ethan-1-one hydrochloride]
130 | CNCCN1CCN(C(=O)c2ccc(Nc3nccn4c(-c5ccc(OC)c(F)c5)cnc34)cc2Cl)CC1 [Example 20, (2-chloro-4-((3-(3-fluoro-4-methoxyphenyl)imidazo[1,2-a]pyrazin-8-yl)amino)phenyl)(4-(2-(methylamino)ethyl)piperazin-1-yl)methanone]
870 | N#CCOc1ccc(-c2cnc3c(Nc4ccc(C(=O)N5CCC(c6ccncc6)CC5)c(Cl)c4)nccn23)c(F)c1F [Example 21, 2-[4-[8-[3-chloro-4-[4-(4-pyridyl)piperidine-1-carbonyl]anilino]imidazo[1,2-a]pyrazin-3-yl]-2,3-difluoro-phenoxy]acetonitrile]
690 | N#CCOc1ccc(-c2cnc3c(Nc4ccc(C(=O)N5CCN(c6ncccn6)CC5)c(Cl)c4)nccn23)c(F)c1F [Example 22, 2-[4-[8-[3-chloro-4-(4-pyrimidin-2-ylpiperazine-1-carbonyl)anilino]imidazo[1,2-a]pyrazin-3-yl]-2,3-difluoro-phenoxy]acetonitrile]
160 | Cn1cnnc1C1CCN(C(=O)c2ccc(Nc3nccn4c(-c5ccc(OCC#N)c(F)c5F)cnc34)cc2Cl)CC1 [Example 23, 2-[4-[8-[3-chloro-4-[4-(4-methyl-1,2,4-triazol-3-yl)piperidine-1-carbonyl]anilino]imidazo[1,2-a]pyrazin-3-yl]-2,3-difluoro-phenoxy]acetonitrile; 2,2,2-trifluoroacetic acid]
150 | N#CCOc1ccc(-c2cnc3c(Nc4ccc(C(=O)N5CCC(n6cnnc6)CC5)c(Cl)c4)nccn23)c(F)c1F [Example 24, 2-[4-[8-[3-chloro-4-[4-(1,2,4-triazol-4-yl)piperidine-1-carbonyl]anilino]imidazo[1,2-a]pyrazin-3-yl]-2,3-difluoro-phenoxy]acetonitrile]
79 | CN(C)CCNC1CCN(C(=O)c2ccc(Nc3nccn4c(-c5ccc(OCC#N)c(F)c5Cl)cnc34)cc2Cl)CC1 [Example 25, 2-[3-chloro-4-[8-[3-chloro-4-[4-[2-(dimethylamino)ethylamino]piperidine-1-carbonyl]anilino]imidazo[1,2-a]pyrazin-3-yl]-2-fluorophenoxy]acetonitrile; 2,2,2-trifluoroacetic acid]
86 | N#CCOc1ccc(-c2cnc3c(Nc4ccc(C(=O)N5CCN(CCN6CCCC6)CC5)c(Cl)c4)nccn23)c(Cl)c1F [Example 26]

SMILES | IC90 [nM]
CN(C)CCN1CCN(C(=O)c2ccc(Nc3nccn4c(-c5ccc(OCC#N)c(F)c5F)cnc34)cc2Cl)CC1 [Example 10, 2-(4-(8-((3-chloro-4-(4-(2-(dimethylamino)ethyl)piperazine-1-carbonyl)phenyl)amino)imidazo[1,2-a]pyrazin-3-yl)-2,3-difluorophenoxy)acetonitrile] | 64

Same assay, conditions: Acinetobacter baumannii, ATCC17978, 16 h, read-out: ATCC17978 IC90

SMILES | IC90 [nM]
CN(C)CC1CCN(C(=O)c2ccc(Nc3nccn4c(-c5ccc(OCC#N)c(F)c5Cl)cnc34)cc2Cl)CC1 [Example 6, 2-[3-chloro-4-[8-[3-chloro-4-[4-[(dimethylamino)methyl]piperidine-1-carbonyl]anilino]imidazo[1,2-a]pyrazin-3-yl]-2-fluoro-phenoxy]acetonitrile; formic acid] | 110
CN(C)CC(=O)N1CCN(C(=O)c2ccc(Nc3nccn4c(-c5ccc(OCC#N)c(F)c5F)cnc34)cc2Cl)CC1 [Example 14, 2-[4-[8-[3-chloro-4-[4-[2-(dimethylamino)acetyl]piperazine-1-carbonyl]anilino]imidazo[1,2-a]pyrazin-3-yl]-2,3-difluoro-phenoxy]acetonitrile; 2,2,2-trifluoroacetic acid] | 28
CNCCNC(=O)C1CCN(C(=O)c2ccc(Nc3nccn4c(-c5ccc(OC)c(F)c5)cnc34)cc2Cl)CC1 [Example 16, 1-(2-chloro-4-((3-(3-fluoro-4-methoxyphenyl)imidazo[1,2-a]pyrazin-8-yl)amino)benzoyl)-N-(2-(methylamino)ethyl)piperidine-4-carboxamide hydrochloride] | 100
